Reference: patent EP0551953A2, “17-(Pyridazine-N-oxide)-substituted steroidal compounds active on the cardiovascular system” (ZAMBON GROUP S.p.A., priority 1992, dated 1993)

These compounds were tested on alpha₃ isoform of rat (Na⁺+K⁺)-ATPase (assay: Displacement of [3H]-ouabain, alpha3 isoform, rat brain preparation). Details: not given.
Format: binding
Excerpt: The activity of the compounds of formula II has been evaluated with the binding test on the alpha₁ and alpha₃ isoforms of rat (Na⁺+K⁺)-ATPase in rat kidney and rat brain, according to the method described by Noel F. et al., Biochemical Pharmacology, 40(12), pp 2611-2616, (1990) (see Example 2).
Evaluation of the interaction with the alpha₁ and alpha₃ isoforms of rat (Na⁺+K⁺)-ATPase
The method of Noel F. et al., Biochemical Pharmacology, 40(12), pp. 2611-2616, (1990) was used to evaluate the displacement of [³H]-ouabain in preparations of rat kidney and rat brain, containing various concentrations of nerifolin, 3beta-(alpha-L-tevetopyranosyloxy)-14-hydroxy-17beta-(4-pyridazil)-5beta,14beta-androstane (compound R), compound 5 and compound 6 and the corresponding genins, respectively, digitoxygenin, 3beta,14-dihydroxy-17beta-(4-pyridazil)-5beta,14beta-androstane (genin 1), 3beta,14-dihydroxy-17beta-(4-pyridazinyl-2-N-oxide)-5beta,14beta-androstane (genin 2) and 3beta,14-dihydroxy-17beta-(4-pyridazinyl-1-N-oxide)-5beta,14beta-androstane (genin 3).

Row | Compound | K₁(alpha₁)/K₁(alpha₃)
1 | C[C@]12CC[C@H](O)C[C@H]1CC[C@@H]1[C@@H]2CC[C@]2(C)[C@@H](C3=CC(=O)OC3)CC[C@]12O [Digitoxygenin, digitoxygenin] | 37

Same assay, conditions: selectivity index, alpha₁ (rat kidney) versus alpha₃ (rat brain)

Row | Compound | K₁(alpha₁)/K₁(alpha₃)
2 | CO[C@H]1[C@H](O)[C@H](O[C@H]2CC[C@@]3(C)[C@H](CC[C@@H]4[C@@H]3CC[C@]3(C)[C@@H](c5ccn[n+]([O-])c5)CC[C@]43O)C2)O[C@@H](C)[C@@H]1O [Compound 5, 3beta-(alfa-L-tevetopyranosyloxy)-14-hydroxy-17beta-(4-pyridazinyl-2-N-oxide)-5beta,14beta-androstane] | ≧1258
3 | CO[C@H]1[C@H](O)[C@H](O[C@H]2CC[C@@]3(C)[C@H](CC[C@@H]4[C@@H]3CC[C@]3(C)[C@@H](c5cc[n+]([O-])nc5)CC[C@]43O)C2)O[C@@H](C)[C@@H]1O [Compound 6, 3beta-(alfa-L-tevetopyranosyloxy)-14-hydroxy-17beta-(4-pyridazinyl-1-N-oxide)-5beta,14beta-androstane] | ≧1000
4 | CO[C@H]1[C@H](O)[C@H](O[C@H]2CC[C@@]3(C)[C@H](CC[C@@H]4[C@@H]3CC[C@]3(C)[C@@H](c5ccnnc5)CC[C@]43O)C2)O[C@@H](C)[C@@H]1O [Compound R, 3beta-(alpha-L-tevetopyranosyloxy)-14-hydroxy-17beta-(4-pyridazil)-5beta,14beta-androstane] | 63
5 | C[C@]12CC[C@H](O)C[C@H]1CC[C@@H]1[C@@H]2CC[C@]2(C)[C@@H](c3ccnnc3)CC[C@]12O [Genin 1, 3beta,14-dihydroxy-17beta-(4-pyridazil)-5beta,14beta-androstane] | 96
6 | CO[C@H]1[C@H](O)[C@H](O[C@H]2CC[C@@]3(C)[C@H](CC[C@@H]4[C@@H]3CC[C@]3(C)[C@@H](C5=CC(=O)OC5)CC[C@]43O)C2)O[C@@H](C)[C@@H]1O [Nerifolin, nerifolin] | 90
